In patent US10392368B2, “Pyrazolo and triazolo bicyclic compounds as JAK kinase inhibitors” (THERAVANCE BIOPHARMA R&D IP, LLC, priority 2017, dated 2019):

Tests used:
JAK1 = biological target: T1, JAK1 (Homo sapiens, UniProt P23458); experiment: Biochemical JAK1 kinase assay (LanthaScreen); conditions: for Ki: read-out: JAK 1 (pKi) (converted)
T1 construct: GST; purchased Life Technologies
In short: (§1)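 Recombinant GST-tagged JAK enzymes with GFP-STAT1 peptide substrate in 50 mM HEPES pH 7.5, 10 mM MgCl2, 1 mM EGTA, 0.01% Brij-35; compounds pre-incubated 1 h, then ATP added, 1 h reaction at ambient temperature. TR-FRET (Tb-anti-pSTAT1 pTyr701, 520/495 nm) after EDTA stop; IC50 by 4-parameter fit, converted to pKi via Cheng-Prusoff.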

JAK2 = biological target: T2, JAK2 (Homo sapiens, UniProt O60674); experiment: Biochemical JAK2 kinase assay (LanthaScreen); conditions: for Ki: read-out: JAK 2 (pKi) (converted)
T2 construct: GST; purchased Life Technologies
In short: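 GST-tagged recombinant JAK2 pre-incubated 1 h at ambient temperature with compound and GFP-STAT1 peptide in HEPES pH 7.5/MgCl2 buffer, then ATP added for a 1 h reaction with 1% DMSO. TR-FRET read after EDTA and Tb-anti-pSTAT1 (pTyr701) addition; IC50 from 4-parameter fit, converted to pKi by Cheng-Prusoff.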

Tyk2 = biological target: T3, Tyk2 (Homo sapiens, UniProt P29597); experiment: Biochemical Tyk2 kinase assay (LanthaScreen); conditions: for Ki: read-out: Tyk 2 (pKi) (converted)
T3 construct: GST; purchased Life Technologies
In short: as §1

[1] = tested on: IL-2 stimulated pSTAT5 in Tall-1 T cells; experiment: Cellular JAK3 potency assay: inhibition of IL-2 stimulated pSTAT5 in Tall-1 T cells; assay type: cell-based, human; conditions: for IC50: Homo sapiens, TALL-1, IL-2 stimulated pSTAT5 in Tall-1 T cells, read-out: Tall-1 (pIC50) (converted); for Tall-1 (pIC50): IL-2 stimulated pSTAT5 in Tall-1 T cells
In short: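 Tall-1 human T cells (45,000/well) in phenol red-free DMEM with 10% FBS were preincubated with compound 1 h at 37 °C, then stimulated with IL-2 (final 300 ng/ml) for 30 min. Lysate pSTAT5 read by AlphaLisa; IC50 from inhibition curves, reported as pIC50 (mean±SD).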

JAK3 = biological target: T4, JAK3 (Homo sapiens, UniProt P52333); experiment: Biochemical JAK3 kinase assay (LanthaScreen); parameters: GST; purchased Life Technologies; conditions: for Ki: read-out: JAK 3 (pKi) (converted); for JAK3 (pKi)-JAK1 (pKi): selectivity: difference of pKi JAK3 and pKi JAK1
T4 sequence (P52333 1-1124): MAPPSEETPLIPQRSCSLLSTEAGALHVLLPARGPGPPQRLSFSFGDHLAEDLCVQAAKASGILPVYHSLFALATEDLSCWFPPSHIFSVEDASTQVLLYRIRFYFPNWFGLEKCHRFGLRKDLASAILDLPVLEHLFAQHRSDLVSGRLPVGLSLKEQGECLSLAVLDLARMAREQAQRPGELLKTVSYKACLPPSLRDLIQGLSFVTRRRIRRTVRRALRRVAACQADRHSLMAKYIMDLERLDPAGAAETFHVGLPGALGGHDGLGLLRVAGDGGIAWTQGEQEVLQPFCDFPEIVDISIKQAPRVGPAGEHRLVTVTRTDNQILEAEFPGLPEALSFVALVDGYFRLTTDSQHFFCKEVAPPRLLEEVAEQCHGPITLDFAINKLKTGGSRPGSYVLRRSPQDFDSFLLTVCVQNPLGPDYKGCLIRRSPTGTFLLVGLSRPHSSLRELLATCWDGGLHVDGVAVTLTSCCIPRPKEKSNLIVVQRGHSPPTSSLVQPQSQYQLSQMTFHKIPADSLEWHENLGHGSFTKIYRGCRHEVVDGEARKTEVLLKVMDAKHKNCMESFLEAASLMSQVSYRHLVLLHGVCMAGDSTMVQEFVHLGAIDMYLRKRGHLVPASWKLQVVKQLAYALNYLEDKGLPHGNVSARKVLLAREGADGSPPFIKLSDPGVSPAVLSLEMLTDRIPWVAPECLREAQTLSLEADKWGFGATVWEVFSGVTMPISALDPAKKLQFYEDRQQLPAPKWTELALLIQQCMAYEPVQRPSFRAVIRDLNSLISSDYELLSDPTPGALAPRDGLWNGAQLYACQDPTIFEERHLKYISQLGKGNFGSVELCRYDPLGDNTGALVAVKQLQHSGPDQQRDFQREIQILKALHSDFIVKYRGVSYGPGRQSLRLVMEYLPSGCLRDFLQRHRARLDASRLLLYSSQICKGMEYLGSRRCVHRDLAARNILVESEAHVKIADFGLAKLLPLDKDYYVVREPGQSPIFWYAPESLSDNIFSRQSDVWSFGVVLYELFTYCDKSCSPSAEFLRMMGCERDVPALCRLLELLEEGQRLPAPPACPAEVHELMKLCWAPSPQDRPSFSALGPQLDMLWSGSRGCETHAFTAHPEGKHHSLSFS
In short: as §1

T3 sequence (P29597 whole entry): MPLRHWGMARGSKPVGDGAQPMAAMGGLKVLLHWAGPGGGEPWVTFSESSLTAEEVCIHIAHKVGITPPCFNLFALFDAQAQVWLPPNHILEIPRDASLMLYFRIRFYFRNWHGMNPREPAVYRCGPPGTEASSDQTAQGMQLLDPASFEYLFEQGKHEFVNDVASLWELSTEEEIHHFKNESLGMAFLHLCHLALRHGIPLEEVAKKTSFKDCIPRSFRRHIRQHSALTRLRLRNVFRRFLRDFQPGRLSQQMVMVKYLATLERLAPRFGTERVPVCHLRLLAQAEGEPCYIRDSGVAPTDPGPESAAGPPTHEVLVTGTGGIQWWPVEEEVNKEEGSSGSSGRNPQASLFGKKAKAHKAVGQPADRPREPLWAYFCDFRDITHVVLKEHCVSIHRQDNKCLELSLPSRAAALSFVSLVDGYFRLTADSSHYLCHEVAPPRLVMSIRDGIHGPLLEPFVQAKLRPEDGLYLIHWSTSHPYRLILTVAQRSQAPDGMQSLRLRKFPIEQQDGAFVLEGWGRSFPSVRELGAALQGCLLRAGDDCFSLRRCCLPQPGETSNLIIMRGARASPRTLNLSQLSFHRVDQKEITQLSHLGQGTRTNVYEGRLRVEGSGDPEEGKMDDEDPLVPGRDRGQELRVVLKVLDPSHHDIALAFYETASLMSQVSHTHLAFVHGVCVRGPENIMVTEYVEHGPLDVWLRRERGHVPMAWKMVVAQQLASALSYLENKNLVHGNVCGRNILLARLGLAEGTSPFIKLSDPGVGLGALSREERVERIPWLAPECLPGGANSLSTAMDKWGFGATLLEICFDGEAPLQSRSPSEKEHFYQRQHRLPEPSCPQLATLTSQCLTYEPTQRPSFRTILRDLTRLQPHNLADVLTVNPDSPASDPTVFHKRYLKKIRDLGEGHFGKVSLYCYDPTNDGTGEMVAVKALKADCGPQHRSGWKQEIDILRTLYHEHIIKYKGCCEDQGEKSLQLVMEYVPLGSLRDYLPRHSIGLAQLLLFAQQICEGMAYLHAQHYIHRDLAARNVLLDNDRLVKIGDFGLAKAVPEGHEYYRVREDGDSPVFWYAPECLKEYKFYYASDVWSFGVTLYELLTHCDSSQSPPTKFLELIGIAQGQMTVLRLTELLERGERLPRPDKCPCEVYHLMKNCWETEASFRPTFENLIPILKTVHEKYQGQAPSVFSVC
T1 sequence (P23458 whole entry): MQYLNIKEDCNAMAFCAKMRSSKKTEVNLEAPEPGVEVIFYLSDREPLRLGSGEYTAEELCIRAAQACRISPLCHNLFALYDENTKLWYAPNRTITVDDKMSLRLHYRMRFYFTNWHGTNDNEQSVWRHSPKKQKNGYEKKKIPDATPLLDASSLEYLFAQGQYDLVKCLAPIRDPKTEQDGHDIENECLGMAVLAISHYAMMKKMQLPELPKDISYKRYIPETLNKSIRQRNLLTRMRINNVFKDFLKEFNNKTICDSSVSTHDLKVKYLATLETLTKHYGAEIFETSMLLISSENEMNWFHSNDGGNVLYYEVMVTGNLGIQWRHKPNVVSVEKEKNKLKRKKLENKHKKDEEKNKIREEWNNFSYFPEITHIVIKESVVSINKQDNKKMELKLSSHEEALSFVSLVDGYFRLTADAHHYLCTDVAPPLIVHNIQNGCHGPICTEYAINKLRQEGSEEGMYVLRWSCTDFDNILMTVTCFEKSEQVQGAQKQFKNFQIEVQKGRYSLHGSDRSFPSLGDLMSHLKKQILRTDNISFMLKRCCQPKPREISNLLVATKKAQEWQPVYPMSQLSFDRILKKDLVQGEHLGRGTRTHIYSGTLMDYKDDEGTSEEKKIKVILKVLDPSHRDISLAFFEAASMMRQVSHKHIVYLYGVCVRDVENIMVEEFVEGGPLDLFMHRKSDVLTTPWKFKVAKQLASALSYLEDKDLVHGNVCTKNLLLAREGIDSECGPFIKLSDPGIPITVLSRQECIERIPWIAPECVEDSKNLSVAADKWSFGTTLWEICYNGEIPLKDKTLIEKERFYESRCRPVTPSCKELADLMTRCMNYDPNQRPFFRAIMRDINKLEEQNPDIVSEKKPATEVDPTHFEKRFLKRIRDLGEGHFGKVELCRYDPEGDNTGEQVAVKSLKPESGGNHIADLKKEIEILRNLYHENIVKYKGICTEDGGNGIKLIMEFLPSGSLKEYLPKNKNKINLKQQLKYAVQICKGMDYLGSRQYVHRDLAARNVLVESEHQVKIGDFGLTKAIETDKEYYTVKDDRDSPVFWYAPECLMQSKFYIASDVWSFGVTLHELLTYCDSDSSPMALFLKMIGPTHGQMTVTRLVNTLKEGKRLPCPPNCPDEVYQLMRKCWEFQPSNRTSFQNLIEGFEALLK
T2 sequence (O60674 whole entry): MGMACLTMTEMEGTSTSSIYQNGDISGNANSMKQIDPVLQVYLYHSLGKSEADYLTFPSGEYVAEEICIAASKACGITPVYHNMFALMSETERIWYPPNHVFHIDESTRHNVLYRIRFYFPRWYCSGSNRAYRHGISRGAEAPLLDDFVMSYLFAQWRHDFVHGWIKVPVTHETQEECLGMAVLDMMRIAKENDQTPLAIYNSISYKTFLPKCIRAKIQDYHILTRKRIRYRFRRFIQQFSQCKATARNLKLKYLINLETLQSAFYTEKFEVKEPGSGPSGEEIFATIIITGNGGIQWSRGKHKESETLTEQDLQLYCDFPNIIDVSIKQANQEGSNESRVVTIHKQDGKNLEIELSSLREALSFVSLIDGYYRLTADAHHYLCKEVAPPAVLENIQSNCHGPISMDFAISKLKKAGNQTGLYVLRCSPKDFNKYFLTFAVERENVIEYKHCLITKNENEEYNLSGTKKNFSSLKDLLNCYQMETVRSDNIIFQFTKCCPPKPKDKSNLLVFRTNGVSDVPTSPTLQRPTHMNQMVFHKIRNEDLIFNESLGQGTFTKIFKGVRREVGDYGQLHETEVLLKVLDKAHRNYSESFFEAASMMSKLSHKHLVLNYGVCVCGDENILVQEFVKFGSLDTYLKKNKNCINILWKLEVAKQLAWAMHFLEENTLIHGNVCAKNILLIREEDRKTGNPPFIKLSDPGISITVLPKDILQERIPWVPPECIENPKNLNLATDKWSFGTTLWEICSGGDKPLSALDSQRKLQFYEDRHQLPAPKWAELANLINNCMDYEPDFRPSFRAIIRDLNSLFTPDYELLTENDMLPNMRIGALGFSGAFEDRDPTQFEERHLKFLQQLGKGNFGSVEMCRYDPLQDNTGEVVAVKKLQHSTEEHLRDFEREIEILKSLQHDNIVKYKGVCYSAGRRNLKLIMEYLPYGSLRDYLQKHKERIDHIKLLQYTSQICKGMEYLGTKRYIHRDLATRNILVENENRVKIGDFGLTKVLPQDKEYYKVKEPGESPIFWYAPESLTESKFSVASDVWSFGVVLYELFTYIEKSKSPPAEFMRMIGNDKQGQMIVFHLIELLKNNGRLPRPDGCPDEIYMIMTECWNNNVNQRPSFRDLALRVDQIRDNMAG

## CN(C)C/C=C/C(=O)N1CC(F)(COc2nc(-c3ccc(O)cc3)nc3[nH]ncc23)C1 [Compound 3-88]
JAK1
  Ki: > 100 nM
JAK2
  Ki: > 100 nM
Tyk2
  Ki: > 100 nM
[1]
  IC50: 31.6 to 200 nM
JAK3
  Ki: 0.1 to 1 nM
  JAK3 (pKi)-JAK1 (pKi): A (a value of 3 or above)

## CN(C)C/C=C/C(=O)N1CC(F)(COc2cc(-c3ccc(O)cc3)nc3[nH]ncc23)C1 [Compound 3-89]
JAK1
  Ki: > 100 nM
JAK2
  Ki: > 100 nM
Tyk2
  Ki: > 100 nM
[1]
  IC50: 31.6 to 200 nM
JAK3
  Ki: < 0.1 nM
  JAK3 (pKi)-JAK1 (pKi): A (a value of 3 or above)

## CN(C)C/C=C/C(=O)N1CC(F)(COc2nc(-c3ccc(O)c(Cl)c3)cc3[nH]ncc23)C1 [Compound 3-91]
JAK1
  Ki: 10 to 100 nM
JAK2
  Ki: 10 to 100 nM
Tyk2
  Ki: > 100 nM
[1]
  IC50: < 31.6 nM
JAK3
  Ki: < 0.1 nM
  JAK3 (pKi)-JAK1 (pKi): A (a value of 3 or above)

## C=CC(=O)N1CC(F)(COc2nc(-c3ccc(O)c(Cl)c3)nc3[nH]ncc23)C1 [Compound 3-92]
JAK1
  Ki: > 100 nM
JAK2
  Ki: > 100 nM
Tyk2
  Ki: > 100 nM
[1]
  IC50: < 31.6 nM
JAK3
  Ki: < 0.1 nM
  JAK3 (pKi)-JAK1 (pKi): A (a value of 3 or above)

## C=CC(=O)N1CC(F)(COc2nc(-c3ccc(O)c(F)c3)nc3[nH]ncc23)C1 [Compound 3-93]
JAK1
  Ki: > 100 nM
JAK2
  Ki: > 100 nM
Tyk2
  Ki: > 100 nM
[1]
  IC50: < 31.6 nM
JAK3
  Ki: < 0.1 nM
  JAK3 (pKi)-JAK1 (pKi): A (a value of 3 or above)

## C=CC(=O)N1CC(F)(COc2cc(-c3ccc(O)c(Cl)c3)nc3[nH]ncc23)C1 [Compound 3-94]
JAK1
  JAK 1 (pKi): E (a pKi value of 7 or below (Ki of 100 nM or above))
JAK2
  JAK 2 (pKi): E (a pKi value of 7 or below (Ki of 100 nM or above))
Tyk2
  Tyk 2 (pKi): E (a pKi value of 7 or below (Ki of 100 nM or above))
[1]
  Tall-1 (pIC50): A (a pIC50 value≥7.5 (IC50≤32 nM))
JAK3
  JAK 3 (pKi): A (a pKi value≥10 (Ki≤0.1 nM))
  JAK3 (pKi)-JAK1 (pKi): A (a value of 3 or above)

## CN(C)C/C=C/C(=O)N1CC(C)(COc2nc(-c3ccc(O)c(Cl)c3)cc3[nH]ncc23)C1 [Compound 3-95]
JAK1
  JAK 1 (pKi): E (a pKi value of 7 or below (Ki of 100 nM or above))
JAK2
  JAK 2 (pKi): E (a pKi value of 7 or below (Ki of 100 nM or above))
Tyk2
  Tyk 2 (pKi): E (a pKi value of 7 or below (Ki of 100 nM or above))
[1]
  Tall-1 (pIC50): A (a pIC50 value≥7.5 (IC50≤32 nM))
JAK3
  JAK 3 (pKi): A (a pKi value≥10 (Ki≤0.1 nM))
  JAK3 (pKi)-JAK1 (pKi): A (a value of 3 or above)

## CN(C)C/C=C/C(=O)N1CC(C)(COc2nc(-c3ccc(O)c(F)c3)cc3[nH]ncc23)C1 [Compound 3-96]
JAK1
  JAK 1 (pKi): E (a pKi value of 7 or below (Ki of 100 nM or above))
JAK2
  JAK 2 (pKi): E (a pKi value of 7 or below (Ki of 100 nM or above))
Tyk2
  Tyk 2 (pKi): E (a pKi value of 7 or below (Ki of 100 nM or above))
[1]
  Tall-1 (pIC50): B (a pIC50 value between 6.7 (included) and 7.5 (IC50 between 200 nM and 32 nM))
JAK3
  JAK 3 (pKi): B (a pKi value between 9 and 10 (Ki between 1 nM and 0.1 nM))
  JAK3 (pKi)-JAK1 (pKi): A (a value of 3 or above)

## C=CC(=O)N1CC(C)(COc2nc(-c3ccc(O)c(Cl)c3)cc3[nH]ncc23)C1 [Compound 3-97]
JAK1
  JAK 1 (pKi): E (a pKi value of 7 or below (Ki of 100 nM or above))
JAK2
  JAK 2 (pKi): E (a pKi value of 7 or below (Ki of 100 nM or above))
Tyk2
  Tyk 2 (pKi): E (a pKi value of 7 or below (Ki of 100 nM or above))
[1]
  Tall-1 (pIC50): A (a pIC50 value≥7.5 (IC50≤32 nM))
JAK3
  JAK 3 (pKi): B (a pKi value between 9 and 10 (Ki between 1 nM and 0.1 nM))
  JAK3 (pKi)-JAK1 (pKi): B (a value of 2.3 to 3)

## C=CC(=O)N1CC(C)(COc2cc(-c3ccc(O)c(F)c3)nc3[nH]ncc23)C1 [Compound 3-98]
JAK1
  Ki: > 100 nM
JAK2
  Ki: > 100 nM
Tyk2
  Ki: > 100 nM
[1]
  IC50: 31.6 to 200 nM
JAK3
  Ki: < 0.1 nM
  JAK3 (pKi)-JAK1 (pKi): A (a value of 3 or above)
